Test results as given in PubChem BioAssay (NCI).
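1) Cells in 96-well plates. 2) Compound, 48 h, 5 concentrations. 3) Linear interpolation between surrounding doses. 4) Unreached endpoint = highest concentration. At the GI50, growth is halved. TGI marks complete inhibition of growth.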

Experiments:
Assay in all cases: NCI-60 cell line screen, 48 h
UACC-257 melanoma = test system: UACC-257 melanoma
SF-539 CNS = test system: SF-539 CNS
SF-295 CNS = test system: SF-295 CNS
HOP-92 NSCLC = test system: HOP-92 NSCLC
A498 renal = test system: A498 renal
K-562 leukemia = test system: K-562 leukemia
BT-549 breast = test system: BT-549 breast
MOLT-4 leukemia = test system: MOLT-4 leukemia
SK-OV-3 ovarian = test system: SK-OV-3 ovarian
NCI-H522 lung = test system: NCI-H522 lung
PC-3 prostate = test system: PC-3 prostate
CCRF-CEM leukemia = test system: CCRF-CEM leukemia
SNB-19 CNS = test system: SNB-19 CNS
MDA-MB-435 = test system: MDA-MB-435
KM12 colon = test system: KM12 colon
NCI-H226 lung = test system: NCI-H226 lung
OVCAR-4 ovarian = test system: OVCAR-4 ovarian
HOP-62 NSCLC = test system: HOP-62 NSCLC
A549 NSCLC = test system: A549 NSCLC
OVCAR-8 ovarian = test system: OVCAR-8 ovarian
SN12C renal = test system: SN12C renal
SK-MEL-5 melanoma = test system: SK-MEL-5 melanoma
MALME-3M melanoma = test system: MALME-3M melanoma
EKVX NSCLC = test system: EKVX NSCLC
MDA-MB-468 breast = test system: MDA-MB-468 breast
M14 melanoma = test system: M14 melanoma
SW-620 colon = test system: SW-620 colon
OVCAR-5 ovarian = test system: OVCAR-5 ovarian
SR leukemia = test system: SR leukemia
NCI/ADR-RES ovarian = test system: NCI/ADR-RES ovarian
NCI-H460 lung = test system: NCI-H460 lung
LOX IMVI melanoma = test system: LOX IMVI melanoma
NCI-H23 lung = test system: NCI-H23 lung
UACC-62 melanoma = test system: UACC-62 melanoma
TK-10 renal = test system: TK-10 renal
HS 578T breast = test system: HS 578T breast
HCT-15 colon = test system: HCT-15 colon
ACHN renal = test system: ACHN renal
HL-60(TB) leukemia = test system: HL-60(TB) leukemia
COLO 205 colon = test system: COLO 205 colon
IGROV1 ovarian = test system: IGROV1 ovarian
HT29 colon = test system: HT29 colon
RXF 393 renal = test system: RXF 393 renal
SF-268 CNS = test system: SF-268 CNS
MCF7 breast = test system: MCF7 breast
DU-145 prostate = test system: DU-145 prostate
RPMI-8226 leukemia = test system: RPMI-8226 leukemia
HCC-2998 colon = test system: HCC-2998 colon
CAKI-1 renal = test system: CAKI-1 renal
U251 CNS = test system: U251 CNS
T-47D breast = test system: T-47D breast
786-0 renal = test system: 786-0 renal
SK-MEL-28 melanoma = test system: SK-MEL-28 melanoma
OVCAR-3 ovarian = test system: OVCAR-3 ovarian
HCT-116 colon = test system: HCT-116 colon

In the case of `COc1ccc2ccccc2c1/C=C1\SC(=Nc2ccc(O)cc2)NC1=O`, the GI50 (UACC-257 melanoma) is reported as 0.683 µM, the TGI (UACC-257 melanoma) is reported as 19.6 µM and the GI50 (SF-539 CNS) is reported as 0.517 µM. The TGI (SF-539 CNS) was 3.4 µM, the GI50 (SF-295 CNS) was 0.843 µM and the TGI (SF-295 CNS) was 10.9 µM. It also gave a GI50 (HOP-92 NSCLC) of 2.05 µM, a TGI (HOP-92 NSCLC) of 20.3 µM and a GI50 (A498 renal) of 3.7 µM. The TGI (A498 renal) was 16.4 µM, the GI50 (K-562 leukemia) was 0.413 µM and the TGI (K-562 leukemia) was 11.9 µM. It also gave a GI50 (BT-549 breast) of 1.04 µM, a TGI (BT-549 breast) of 4.54 µM and a GI50 (MOLT-4 leukemia) of 1.51 µM. The TGI (MOLT-4 leukemia) was 11.3 µM, the GI50 (SK-OV-3 ovarian) was 1.66 µM and the TGI (SK-OV-3 ovarian) was 18 µM. The GI50 (NCI-H522 lung) was 0.422 µM, the TGI (NCI-H522 lung) was 2.22 µM and the GI50 (PC-3 prostate) was 0.798 µM. For the same compound, the TGI (PC-3 prostate) was 29.1 µM, the GI50 (CCRF-CEM leukemia) was 0.651 µM and the TGI (CCRF-CEM leukemia) was 30.1 µM. For the same compound, the GI50 (SNB-19 CNS) was 1.8 µM, the TGI (SNB-19 CNS) was 14 µM and the GI50 (MDA-MB-435) was 0.235 µM. It also gave a TGI (MDA-MB-435) of 0.591 µM, a GI50 (KM12 colon) of 1.19 µM and a TGI (KM12 colon) of 14.8 µM. For the same compound, the GI50 (NCI-H226 lung) was 5.56 µM, the TGI (NCI-H226 lung) was 34.7 µM and the GI50 (OVCAR-4 ovarian) was 3.81 µM. It also gave a TGI (OVCAR-4 ovarian) of 21.1 µM, a GI50 (HOP-62 NSCLC) of 2.58 µM and a TGI (HOP-62 NSCLC) of 13.6 µM. For the same compound, the GI50 (A549 NSCLC) was 2.01 µM, the TGI (A549 NSCLC) was 16.9 µM and the GI50 (OVCAR-8 ovarian) was 1.58 µM. It also gave a TGI (OVCAR-8 ovarian) of 6.51 µM, a GI50 (SN12C renal) of 2.48 µM and a TGI (SN12C renal) of 13.3 µM. The GI50 (SK-MEL-5 melanoma) was 0.54 µM, the TGI (SK-MEL-5 melanoma) was 2.28 µM and the GI50 (MALME-3M melanoma) was 1.02 µM. It also gave a TGI (MALME-3M melanoma) of 14.4 µM, a GI50 (EKVX NSCLC) of 1.11 µM and a TGI (EKVX NSCLC) of 17.3 µM. For the same compound, the GI50 (MDA-MB-468 breast) was 0.37 µM, the TGI (MDA-MB-468 breast) was 1.82 µM and the GI50 (M14 melanoma) was 0.492 µM. It also gave a TGI (M14 melanoma) of 10.8 µM, a GI50 (SW-620 colon) of 0.437 µM and a TGI (SW-620 colon) of 15.8 µM. The GI50 (OVCAR-5 ovarian) was 3.56 µM, the TGI (OVCAR-5 ovarian) was 16.2 µM and the GI50 (SR leukemia) was 0.321 µM. For the same compound, the TGI (SR leukemia) was 12.5 µM, the GI50 (NCI/ADR-RES ovarian) was 0.95 µM and the TGI (NCI/ADR-RES ovarian) was 3.8 µM. The GI50 (NCI-H460 lung) was 0.833 µM, the TGI (NCI-H460 lung) was 11.3 µM and the GI50 (LOX IMVI melanoma) was 0.666 µM. For the same compound, the TGI (LOX IMVI melanoma) was 12.1 µM, the GI50 (NCI-H23 lung) was 1.11 µM and the TGI (NCI-H23 lung) was 11.3 µM. For the same compound, the GI50 (UACC-62 melanoma) was 0.346 µM, the TGI (UACC-62 melanoma) was 12.5 µM and the GI50 (TK-10 renal) was 4.14 µM. The TGI (TK-10 renal) was 21.6 µM, the GI50 (HS 578T breast) was 0.4 µM and the TGI (HS 578T breast) was 11.9 µM. It also gave a GI50 (HCT-15 colon) of 0.442 µM, a TGI (HCT-15 colon) of 11.1 µM and a GI50 (ACHN renal) of 1.81 µM. The TGI (ACHN renal) was 16.3 µM, the GI50 (HL-60(TB) leukemia) was 0.431 µM and the TGI (HL-60(TB) leukemia) was 2.65 µM. For the same compound, the GI50 (COLO 205 colon) was 1.88 µM, the TGI (COLO 205 colon) was 5.04 µM and the GI50 (IGROV1 ovarian) was 1.85 µM. The TGI (IGROV1 ovarian) was 14.4 µM, the GI50 (HT29 colon) was 2.82 µM and the TGI (HT29 colon) was 7.35 µM. The GI50 (RXF 393 renal) was 0.272 µM, the TGI (RXF 393 renal) was 1.71 µM and the GI50 (SF-268 CNS) was 1.59 µM. For the same compound, the TGI (SF-268 CNS) was 18.7 µM, the GI50 (MCF7 breast) was 0.428 µM and the TGI (MCF7 breast) was 12.5 µM. The GI50 (DU-145 prostate) was 2.17 µM, the TGI (DU-145 prostate) was 19.6 µM and the GI50 (RPMI-8226 leukemia) was 2.59 µM. It also gave a TGI (RPMI-8226 leukemia) of 9.45 µM, a GI50 (HCC-2998 colon) of 1.73 µM and a TGI (HCC-2998 colon) of 12.6 µM. For the same compound, the GI50 (CAKI-1 renal) was 11.1 µM, the TGI (CAKI-1 renal) was 46.5 µM and the GI50 (U251 CNS) was 0.425 µM. It also gave a TGI (U251 CNS) of 11.3 µM, a GI50 (T-47D breast) of 0.765 µM and a TGI (T-47D breast) of 31.7 µM. For the same compound, the GI50 (786-0 renal) was 3.19 µM, the TGI (786-0 renal) was 21 µM and the GI50 (SK-MEL-28 melanoma) was 0.966 µM. For the same compound, the TGI (SK-MEL-28 melanoma) was 19.9 µM, the GI50 (OVCAR-3 ovarian) was 0.425 µM and the TGI (OVCAR-3 ovarian) was 11.7 µM. It also gave a GI50 (HCT-116 colon) of 0.432 µM and a TGI (HCT-116 colon) of 11.6 µM.
